Test [1] has as its target Human recombinant Acetyl-CoA Carboxylase 2 (ACC2) (Homo sapiens, UniProt O00763). Nature of the test: Assay X: ACC2 inhibition, inorganic phosphate (malachite green). The test is classed as biochemical. The conditions noted are these: Assay X: 37° C., 1.5 h, 5 min pre-incubation. The method, then: (§1) Human recombinant Acetyl-CoA Carboxylase 1 and Acetyl-CoA Carboxylase 2 (ACC1 and ACC2) were assayed by determining the amount of inorganic phosphate (Pi) generated. Pre-incubation of 15 μL enzyme together with 0.75 μL DMSO+/−compound for 5 min was done before the reaction was initiated by the addition of 10 μL substrate. […] After 1.5 h the reaction was stopped by addition of 74 μL of water followed by extensive mixing, split and transfer of 2×40 μL to a read-plate encompassing 30 μL distilled H2O per well (n=2→n=4). Colour reaction was initiated by addition of 30 μL malachite green reagent per well and allowed 15 min before absorbance reading of the plates at 660 nm. The malachite green reagent was prepared by mixing 16.4 mL ammonium molybdate solution (7.5%), 1.64 mL Tween (11%) with 82 mL Malachite Green/H2SO4-solution (0.7 g Malachite Green to 1000 mL of 10% (v/v) H2SO4).
(§2) All compounds were tested in triplicate at 10 different concentrations. Control compound (0, 50 and 100% effect) was included on each plate. […] Curve fitting was done using the following equation: y=(A+((B−A)/(1+((x/C)̂D)))) where A and B represents the curve bottom (% inhibition) and the total amplitude (% inhibition), respectively, whereas C and D are the apparent IC50 and curve slope, respectively.

For test [2], the target named is Human recombinant Acetyl-CoA Carboxylase 1 (ACC1) (Homo sapiens, UniProt Q13085). Nature of the test: Assay X: ACC1 inhibition, inorganic phosphate (malachite green). The test is classed as biochemical. The conditions noted are these: Assay X: 37° C., 1.5 h, 5 min pre-incubation. How it is done: as §1, §2

Broadly, the IC50 is the concentration that gives 50% inhibition.

Sequence of Human recombinant Acetyl-CoA Carboxylase 2 (ACC2) (O00763 whole entry): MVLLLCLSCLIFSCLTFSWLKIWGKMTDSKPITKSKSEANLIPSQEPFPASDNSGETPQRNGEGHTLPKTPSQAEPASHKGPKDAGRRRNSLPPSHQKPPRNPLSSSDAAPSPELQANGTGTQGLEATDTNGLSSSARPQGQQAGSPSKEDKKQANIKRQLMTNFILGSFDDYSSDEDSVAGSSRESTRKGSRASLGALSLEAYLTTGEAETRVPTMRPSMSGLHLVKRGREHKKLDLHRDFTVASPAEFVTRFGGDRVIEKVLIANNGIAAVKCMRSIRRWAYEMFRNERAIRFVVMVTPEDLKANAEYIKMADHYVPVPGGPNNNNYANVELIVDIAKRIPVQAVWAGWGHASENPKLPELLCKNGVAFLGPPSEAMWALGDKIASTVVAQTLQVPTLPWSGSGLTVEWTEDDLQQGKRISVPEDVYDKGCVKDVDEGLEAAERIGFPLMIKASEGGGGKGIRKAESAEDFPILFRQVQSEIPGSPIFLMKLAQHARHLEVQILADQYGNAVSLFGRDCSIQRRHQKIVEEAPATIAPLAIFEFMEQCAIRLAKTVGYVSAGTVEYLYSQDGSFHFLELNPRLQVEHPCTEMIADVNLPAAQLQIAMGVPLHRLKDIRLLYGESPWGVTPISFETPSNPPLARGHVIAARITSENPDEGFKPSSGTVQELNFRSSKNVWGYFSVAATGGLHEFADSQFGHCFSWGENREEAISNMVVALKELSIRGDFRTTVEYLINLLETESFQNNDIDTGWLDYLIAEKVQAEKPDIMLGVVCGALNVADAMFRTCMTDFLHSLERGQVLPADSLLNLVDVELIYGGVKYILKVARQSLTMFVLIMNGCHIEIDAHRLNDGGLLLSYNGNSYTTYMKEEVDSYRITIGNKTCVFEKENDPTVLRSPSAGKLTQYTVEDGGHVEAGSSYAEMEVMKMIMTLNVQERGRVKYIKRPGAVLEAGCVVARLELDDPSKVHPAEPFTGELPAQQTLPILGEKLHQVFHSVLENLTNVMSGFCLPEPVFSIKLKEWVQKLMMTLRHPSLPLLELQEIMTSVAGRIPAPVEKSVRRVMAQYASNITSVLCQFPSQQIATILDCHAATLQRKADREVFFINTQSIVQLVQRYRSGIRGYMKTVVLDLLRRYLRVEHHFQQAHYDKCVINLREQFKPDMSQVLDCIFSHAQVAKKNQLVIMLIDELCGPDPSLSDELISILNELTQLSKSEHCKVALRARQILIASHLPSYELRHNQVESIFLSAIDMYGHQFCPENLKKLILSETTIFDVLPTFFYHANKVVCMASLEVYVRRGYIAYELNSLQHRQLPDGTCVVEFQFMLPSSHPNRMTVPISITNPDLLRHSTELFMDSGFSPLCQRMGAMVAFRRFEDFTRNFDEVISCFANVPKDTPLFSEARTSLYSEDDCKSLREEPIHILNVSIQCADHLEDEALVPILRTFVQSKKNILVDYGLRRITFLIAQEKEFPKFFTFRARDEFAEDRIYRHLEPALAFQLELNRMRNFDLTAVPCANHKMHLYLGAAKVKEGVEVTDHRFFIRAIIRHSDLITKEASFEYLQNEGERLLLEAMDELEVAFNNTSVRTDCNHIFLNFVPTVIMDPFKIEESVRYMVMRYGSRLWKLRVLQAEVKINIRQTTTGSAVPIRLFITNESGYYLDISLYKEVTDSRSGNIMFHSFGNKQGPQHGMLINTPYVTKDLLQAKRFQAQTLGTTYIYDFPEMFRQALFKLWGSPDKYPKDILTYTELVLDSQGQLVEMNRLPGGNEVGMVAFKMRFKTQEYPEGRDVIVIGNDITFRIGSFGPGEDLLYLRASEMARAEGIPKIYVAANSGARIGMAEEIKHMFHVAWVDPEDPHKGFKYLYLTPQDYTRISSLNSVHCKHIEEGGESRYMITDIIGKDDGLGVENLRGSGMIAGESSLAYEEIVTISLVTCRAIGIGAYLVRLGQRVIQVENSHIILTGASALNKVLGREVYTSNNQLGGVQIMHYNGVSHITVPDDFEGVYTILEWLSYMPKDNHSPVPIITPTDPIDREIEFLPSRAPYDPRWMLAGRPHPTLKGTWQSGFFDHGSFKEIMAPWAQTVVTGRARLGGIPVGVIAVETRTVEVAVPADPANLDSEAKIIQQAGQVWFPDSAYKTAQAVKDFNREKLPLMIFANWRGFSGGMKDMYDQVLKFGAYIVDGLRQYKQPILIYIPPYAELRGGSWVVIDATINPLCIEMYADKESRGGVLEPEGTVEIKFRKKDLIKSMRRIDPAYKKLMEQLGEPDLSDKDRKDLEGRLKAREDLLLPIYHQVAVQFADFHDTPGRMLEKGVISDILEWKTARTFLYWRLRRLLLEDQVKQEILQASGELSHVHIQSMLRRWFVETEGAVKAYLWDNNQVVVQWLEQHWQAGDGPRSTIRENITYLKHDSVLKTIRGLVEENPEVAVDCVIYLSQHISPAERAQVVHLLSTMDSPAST

With `CC(CNc1ccc(-c2cc(C(=O)NC[C@H]3CC[C@H](CNC(=O)OC(C)(C)C)CC3)c3ccccc3n2)cn1)C(=O)O` (relative stereo) [Example 158, 3-{[5-(4-{[(trans-4-{[(tert-Butoxycarbonyl)amino]methyl}cyclohexyl)methyl]-carbamoyl}quinolin-2-yl)pyridin-2-yl]amino}-2-methyl-propanoic acid], the IC50 in test [1] was 1240 nM; in test [2] it was 3870 nM.
`CC(C)(C)OC(=O)NC[C@H]1CC[C@H](CNC(=O)c2cc(-c3ccc(NCC(O)CO)nc3)nc3ccccc23)CC1` (relative stereo) [Example 162, tert-Butyl{[trans-4-({[(2-{6-[(2,3-dihydroxypropyl)amino]pyridin-3-yl}quinolin-4-yl)carbonyl]amino}-methyl)cyclohexyl]-methyl}carbamate]: the 50% inhibitory concentration (IC50) in test [1] was 370 nM; in test [2], 880 nM.
On to `CC(C)(C)OC(=O)NC[C@H]1CC[C@H](CNC(=O)c2cc(-c3ccc(N4CCOC(CO)C4)nc3)nc3ccccc23)CC1` (relative stereo) [Example 171, tert-Butyl{[trans-4-({[(2-{6-[2-(hydroxymethyl)morpholin-4-yl]-pyridin-3-yl}quinolin-4-yl)carbonyl]amino}-methyl)cyclohexyl]-methyl}carbamate], for which the results for the half-maximal inhibitory concentration (IC50) in test [1] and in test [2] were 140 nM and 290 nM, respectively.
With `CC(O)C(C)Oc1ccc(-c2cc(C(=O)NC[C@H]3CC[C@H](CNC(=O)OC(C)(C)C)CC3)c3ccccc3n2)cn1` (relative stereo) [Example 176, tert-Butyl[(trans-4-{[({2-[6-(2-hydroxy-1-methylpropoxy)-pyridin-3-yl]-quinolin-4-yl}-carbonyl)amino]-methyl}cyclohexyl)methyl]carbamate], the IC50 in test [1] was found to be 1050 nM; in test [2], 3040 nM.
Take `CC(C)(C)OC(=O)NC[C@H]1CC[C@H](CNC(=O)c2cc(N3CCC(CC(O)CN4CCCC4)CC3)nc3ccccc23)CC1` (relative stereo) [Example 206, tert-butyl [(trans-4-{[({2-[4-(2-hydroxy-3-pyrrolidin-1-ylpropyl)piperidin-1-yl]quinolin-4-yl}carbonyl)amino]methyl}cyclohexyl)methyl]carbamate]: the values for the half-maximal inhibitory concentration (IC50) in test [1] and in test [2] were 130 nM and 973 nM, respectively.
In the case of `CC(C)(C)OC(=O)NC[C@H]1CC[C@H](CNC(=O)c2cc(N3CCC(CC(O)CN4CCOCC4)CC3)nc3ccccc23)CC1` (relative stereo) [Example 207, tert-Butyl[(trans-4-{[({2-[4-(2-hydroxy-3-morpholin-4-ylpropyl)piperidin-1-yl]quinolin-4-yl}-carbonyl)amino]methyl}cyclohexyl)methyl]-carbamate], the IC50 in test [1] is 130 nM; in test [2] it was 1040 nM.
With `CC(C)(C)OC(=O)NC[C@H]1CC[C@H](CNC(=O)c2cc(N3CCC(CCN4CCC(O)C4)CC3)nc3ccccc23)CC1` (relative stereo) [Example 230, tert-Butyl{[trans-4-({[(2-{4-[2-(3-hydroxypyrrolidin-1-yl)ethyl]piperidin-1-yl}quinolin-4-yl)carbonyl]amino}-methyl)cyclohexyl]-methyl}carbamate], the IC50 was 160 nM in test [1] and 1330 nM in test [2].
The matching figures for `CC(C)(C)OC(=O)NC[C@H]1CC[C@H](CNC(=O)c2cc(N3CCC(CC(O)CN4CCOCC4)CC3)nc3ccccc23)CC1` (single isomer, unassigned) [Example 208, (R) or (S) tert-Butyl [(trans-4-{[({2-[4-(2-hydroxy-3-morpholin-4-ylpropyl)piperidin-1-yl]quinolin-4-yl}-carbonyl)amino]methyl}cyclohexyl)methyl]-carbamate]: 170 nM and 1100 nM.
For `CC(C)(C)OC(=O)NC[C@H]1CC[C@H](CNC(=O)c2cc(N3CCC(CC(O)CN4CCCC4)CC3)nc3ccccc23)CC1` (single isomer, unassigned) [Example 209, (S) or (R) tert-Butyl [(trans-4-{[({2-[4-(2-hydroxy-3-pyrrolidin-1-ylpropyl)-piperidin-1-yl]quinolin-4-yl}carbonyl)amino]-methyl}cyclohexyl)methyl]carbamate] the same measures were 110 nM and 780 nM.
On to `CC(C#N)OC(=O)NC[C@H]1CC[C@H](CNC(=O)c2cc(-c3ccc(N4CCN(C)CC4)nc3)nc3ccccc23)CC1` (stereo partly drawn) [Example 121, 1-Cyanoethyl[(trans-4-{[({2-[6-(4-methylpiperazin-1-yl)pyridin-3-yl]quinolin-4-yl}carbonyl)amino]methyl}cyclohexyl)methyl]carbamate], for which the IC50 in test [1] turned out to be 1370 nM; in test [2] it was 4770 nM.
The matching figures for `CC(=O)NCCOC(=O)NC[C@H]1CC[C@H](CNC(=O)c2cc(-c3ccc(N4CCN(C)CC4)nc3)nc3ccccc23)CC1` [Example 122, 2-Acetamidoethyl[(trans-4-{[({2-[6-(4-methylpiperazin-1-yl)pyridin-3-yl]quinolin-4-yl}carbonyl)amino]methyl}cyclohexyl)methyl]carbamate]: 1860 nM and 8130 nM.
Turning to `CN1CCN(c2ccc(-c3cc(C(=O)NC[C@H]4CC[C@H](CNC(=O)OCC5CCOC5)CC4)c4ccccc4n3)cn2)CC1` (stereo partly drawn) [Example 126, Tetrahydrofuran-3-ylmethyl[(trans-4-{[({2-[6-(4-methylpiperazin-1-yl)pyridin-3-yl]quinolin-4-yl}carbonyl)amino]methyl}cyclohexyl)methyl]carbamate], the IC50 in test [1] was 420 nM; in test [2], 1670 nM.
Regarding `CN1CCN(c2ccc(-c3cc(C(=O)NC[C@H]4CC[C@H](CNC(=O)OCC5CCCO5)CC4)c4ccccc4n3)cn2)CC1` (stereo partly drawn) [Example 127, Tetrahydrofuran-2-ylmethyl[(trans-4-{[({2-[6-(4-methylpiperazin-1-yl)pyridin-3-yl]quinolin-4-yl}carbonyl)amino]methyl}cyclohexyl)methyl]carbamate], the IC50 in test [1] amounted to 880 nM; in test [2], 3780 nM.
For `CN1CCN(c2ccc(-c3cc(C(=O)NC[C@H]4CC[C@H](CNC(=O)OCCn5cccn5)CC4)c4ccccc4n3)cn2)CC1` [Example 129, 2-(1H-Pyrazol-1-yl)ethyl-[(trans-4-{[({2-[6-(4-methylpiperazin-1-yl)pyridin-3-yl]quinolin-4-yl}carbonyl)amino]methyl}cyclohexyl)methyl]carbamate] the same measures were 2440 nM and 7940 nM.
Take `CN1CCN(c2ccc(-c3cc(C(=O)NC[C@H]4CC[C@H](CNC(=O)OCc5nccs5)CC4)c4ccccc4n3)cn2)CC1` [Example 130, 1,3-Thiazol-2-ylmethyl-[(trans-4-{[({2-[6-(4-methylpiperazin-1-yl)pyridin-3-yl]quinolin-4-yl}carbonyl)amino]methyl}cyclohexyl)methyl]carbamate]: the IC50 in test [1] was 440 nM; in test [2], 1950 nM.
Regarding `CN1CCN(c2ccc(-c3cc(C(=O)NC[C@H]4CC[C@H](CNC(=O)OCc5cnccn5)CC4)c4ccccc4n3)cn2)CC1` [Example 131, Pyrazin-2-ylmethyl-[(trans-4-{[({2-[6-(4-methylpiperazin-1-yl)pyridin-3-yl]quinolin-4-yl}carbonyl)amino]methyl}cyclohexyl)methyl]carbamate], the IC50 was determined as 1590 nM in test [1] and 5250 nM in test [2].
For `CN1CCN(c2ccc(-c3cc(C(=O)NC[C@H]4CC[C@H](CNC(=O)OCCC#N)CC4)c4ccccc4n3)cn2)CC1` [Example 132, 2-Cyanoethyl[(trans-4-{[({2-[6-(4-methylpiperazin-1-yl)pyridin-3-yl]quinolin-4-yl}carbonyl)amino]methyl}cyclohexyl)methyl]carbamate] the same measures were 1860 nM and 5760 nM.
For `CC(C)(C)OC(=O)NC[C@H]1CC[C@H](CNC(=O)c2cc(-c3ccc(NCCCO)nc3)nc3ccccc23)CC1` [Example 150, tert-Butyl{[trans-4-({[(2-{6-[(3-hydroxypropyl)amino]pyridin-3-yl}quinolin-4-yl)carbonyl]amino}-methyl)cyclohexyl]methyl}carbamate], the IC50 in test [1] came to 130 nM; in test [2] it was 350 nM.
Turning to `CC(C)(C)OC(=O)NC[C@H]1CC[C@H](CNC(=O)c2cc(-c3ccc(N4CCC(O)CC4)nc3)nc3ccccc23)CC1` [Example 151, tert-Butyl[(trans-4-{[({2-[6-(4-hydroxypiperidin-1-yl)pyridin-3-yl]-quinolin-4-yl}-carbonyl)amino]methyl}cyclohexyl)methyl]carbamate], the IC50 in test [1] worked out at 160 nM; in test [2] it was 610 nM.
For `CC(C)(C)OC(=O)NC[C@H]1CC[C@H](CNC(=O)c2cc(-c3ccc(N(CCO)CCO)nc3)nc3ccccc23)CC1` [Example 152, tert-Butyl{[trans-4-({[(2-{6-[bis(2-hydroxyethyl)amino]pyridin-3-yl}quinolin-4-yl)carbonyl]amino}-methyl)cyclohexyl]methyl}carbamate] the same measures were 170 nM and 480 nM.

The record behind these values is patent publication US20090306133A1, “New Acetyl Coenzyme A Carboxylase (ACC) Inhibitors And Uses In Treatments Of Obesity And Diabetes Mellitus - 087” (ASTRAZENECA AB, priority 2007, published 2009).
